Measurements: patent publication US20260217677A1, “ORGANIC COMPOUNDS AS NLRP3 INHIBITORS” (KODIAK SCIENCES, INC., priority 2023, published 2026)

system: IL-1β release in U937 cells after NLRP3 activation; assay: IL-1β release inhibition in U937 cells (MSD V-Plex); details: Homo sapiens, U-937, read-out: IL-1β IC50, Table 3; PMA-differentiated U937 cells, 1 μg/mL LPS 3 h, compound 30 min, 10 mM nigericin 1 h

Compound | IC50
Cc1cc(N[C@@H]2CCCN(CC34CC(O)(C3)C4)C2)nnc1-c1ccc(C(F)(F)F)cc1O [Example 64, (R)-3-((3-((6-(2-Hydroxy-4-(trifluoromethyl)phenyl)-5-methylpyridazin-3-yl)amino)piperidin-1-yl)methyl) bicyclo[1.1.1]pentan-1-ol] | < 5 nM
O=C(CN1CCC[C@@H](Nc2nnc(-c3ccc(C(F)(F)F)cc3O)c3c2COC3)C1)N1C[C@@H](O)[C@H](F)C1 [Example 29, 1-((3R,4R)-3-Fluoro-4-hydroxypyrrolidin-1-yl)-2-((R)-3-((4-(2-hydroxy-4-(trifluoromethyl)phenyl)-5,7-dihydrofuro[3,4-d]pyridazin-1-yl)amino)piperidin-1-yl)ethan-1-one] | 5 to 50 nM
Cc1cc(N[C@@H]2CCCN(CC(=O)N3CC4(CC(O)C4)C3)C2)nnc1-c1ccc(C(F)(F)F)cc1O [Compound 16, (R)-2-(3-((6-(2-Hydroxy-4-(trifluoromethyl)phenyl)-5-methylpyridazin-3-yl)amino)piperidin-1-yl)-1-(6-hydroxy-2-azaspiro[3.3]heptan-2-yl)ethan-1-one] | 5 to 50 nM
Oc1cc(C(F)(F)F)ccc1-c1nnc(N[C@@H]2CCCN(CCN3CC[C@@H](O)C3)C2)c2c1COC2 [Example 36, (R)-1-(2-((R)-3-((4-(2-Hydroxy-4-(trifluoromethyl)phenyl)-5,7-dihydrofuro[3,4-d]pyridazin-1-yl)amino)piperidin-1-yl)ethyl)pyrrolidin-3-ol] | 5 to 50 nM
Cc1cc(N[C@@H]2CCCN(CC(=O)N[C@H]3C[C@@H](O)C3)C2)nnc1-c1ccc(C(F)(F)F)cc1O [Compound 14, 2-((R)-3-((6-(2-Hydroxy-4-(trifluoromethyl)phenyl)-5-methylpyridazin-3-yl)amino)piperidin-1-yl)-N-((1s,3S)-3-hydroxycyclobutyl)acetamide] | 5 to 50 nM
Cc1cc(N[C@@H]2CCCN(CC(=O)N3CC(C)(CO)C3)C2)nnc1-c1ccc(C(F)(F)F)cc1O [Example 48, (R)-2-(3-((6-(2-Hydroxy-4-(trifluoromethyl)phenyl)-5-methylpyridazin-3-yl)amino)piperidin-1-yl)-1-(3-(hydroxymethyl)-3-methylazetidin-1-yl)ethan-1-one] | 5 to 50 nM
Cc1cc(N[C@@H]2CCCN(C3CCN(C4CCC(O)CC4)CC3)C2)nnc1-c1ccc(C(F)(F)F)cc1O (single isomer, unassigned) [Example 39A] | 5 to 50 nM
Cc1cc(N[C@@H]2CCCN(CC(=O)NC3CC(O)C3)C2)nnc1-c1ccc(C(F)(F)F)cc1O (stereo partly drawn) [Compound 10, 2-((R)-3-((6-(2-Hydroxy-4-(trifluoromethyl)phenyl)-5-methylpyridazin-3-yl)amino)piperidin-1-yl)-N-((1r,3R)-3-hydroxycyclobutyl)acetamide] | 5 to 50 nM
Cc1cc(N[C@@H]2CCCN(CCN3CC(O)C(F)C3)C2)nnc1-c1ccc(C(F)(F)F)cc1O (stereo partly drawn) [Compound 5, 4-Fluoro-1-(2-((R)-3-((6-(2-hydroxy-4-(trifluoromethyl)phenyl)-5-methylpyridazin-3-yl)amino)piperidin-1-yl)ethyl)pyrrolidin-3-ol] | < 5 nM
Cc1c(N[C@@H]2CCCN(CC(=O)N3CCC(O)CC3)C2)nnc(-c2ccc3sccc3c2O)c1C [Example 50, (R)-2-(3-((6-(4-Hydroxybenzo[b]thiophen-5-yl)-4,5-dimethylpyridazin-3-yl)amino)piperidin-1-yl)-1-(4-hydroxypiperidin-1-yl)ethan-1-one] | < 5 nM
Oc1cc(C(F)(F)F)ccc1-c1nnc(N[C@@H]2CCCN(CCN3CC[C@H](O)C3)C2)c2c1COC2 [Example 35, (S)-1-(2-((R)-3-((4-(2-Hydroxy-4-(trifluoromethyl)phenyl)-5,7-dihydrofuro[3,4-d]pyridazin-1-yl)amino)piperidin-1-yl)ethyl)pyrrolidin-3-ol] | 5 to 50 nM
Cc1cc(N[C@@H]2CCCN(CC3CC(O)C3)C2)nnc1-c1ccc2sccc2c1O (stereo partly drawn) [Example 52, 5-(6-(((R)-1-(((1r,3R)-3-Hydroxycyclobutyl)methyl)piperidin-3-yl)amino)-4-methylpyridazin-3-yl)benzo[b]thiophen-4-ol] | < 5 nM
O=C(CN1CCC[C@@H](Nc2nnc(-c3ccc(F)cc3O)c3c2CCC3)C1)N1CCC(O)CC1 [Compound 20, 2-[(3R)-3-{[4-(4-Fluoro-2-hydroxyphenyl)-5H,6H,7H-cyclopenta[d]pyridazin-1-yl]amino}piperidin-1-yl]-1-(4-hydroxypiperidin-1-yl) ethenone] | 50 to 500 nM
Cc1cc(N[C@@H]2CCCN(C(=O)C3CC4(CC(O)C4)C3)C2)nnc1-c1ccc(C(F)(F)F)cc1O (stereo partly drawn) [Example 61, (R)-(3-((6-(2-Hydroxy-4-(trifluoromethyl)phenyl)-5-methylpyridazin-3-yl)amino)piperidin-1-yl) (6-hydroxyspiro[3.3]heptan-2-yl)methanone] | 5 to 50 nM
Cc1cc(N[C@@H]2CCCN(CC(=O)N3CC[C@H](O)C3)C2)nnc1-c1ccc(C(F)(F)F)cc1O [Compound 11, 2-((R)-3-((6-(2-Hydroxy-4-(trifluoromethyl)phenyl)-5-methylpyridazin-3-yl)amino)piperidin-1-yl)-1-((S)-3-hydroxypyrrolidin-1-yl)ethan-1-one] | < 5 nM
Cc1cc(N[C@@H]2CCCN(CCC3CC(O)C3)C2)nnc1-c1ccc(C(F)(F)F)cc1O (stereo partly drawn) [Example 66, (R)-2-(6-((1-(2-(3-Hydroxycyclobutyl)ethyl)piperidin-3-yl)amino)-4-methylpyridazin-3-yl)-5-(trifluoromethyl)phenol] | < 5 nM
Cc1c(-c2ccc(C(F)(F)F)cc2O)nnc2c1CCCN2[C@@H]1CCCN(CC(=O)N2CCC3(CC2)CC(O)C3)C1 [Example 43, 2-[(3R)-3-{3-[2-Hydroxy-4-(trifluoromethyl)phenyl]-4-methyl-5H,6H,7H-pyrido[2,3-c]pyridazin-8-yl}piperidin-1-yl]-1-{2-hydroxy-7-azaspiro[3.5]nonan-7-yl}ethanone] | 50 to 500 nM
Cc1c(N[C@@H]2CCCN(C[C@H]3C[C@@H](O)C3)C2)nnc(-c2ccc3sccc3c2O)c1C [Example 73, 5-(6-(((R)-1-(((1s,3S)-3-Hydroxycyclobutyl)methyl)piperidin-3-yl)amino)-4,5-dimethylpyridazin-3-yl)benzo[b]thiophen-4-ol] | < 5 nM
Cc1cc(N[C@@H]2CCCN(CCN3CC[C@H](O)C3)C2)nnc1-c1ccc(C(F)(F)F)cc1O [Compound 4, (S)-1-(2-((R)-3-((6-(2-Hydroxy-4-(trifluoromethyl)phenyl)-5-methylpyridazin-3-yl)amino)piperidin-1-yl)ethyl)pyrrolidin-3-ol] | > 500 nM

same assay, conditions: Homo sapiens, U-937, read-out: IL-1β IC50, Table 4; PMA-differentiated U937 cells, 1 μg/mL LPS 3 h, compound 30 min, 10 mM nigericin 1 h

Compound | IC50
Cc1cc(N[C@@H]2CCCN(C[C@H]3CCCN3)C2)nnc1-c1ccc(C(F)(F)F)cc1O [Example 107, 2-(4-Methyl-6-(((R)-1-(((R)-pyrrolidin-2-yl)methyl)piperidin-3-yl)amino)pyridazin-3-yl)-5-(trifluoromethyl)phenol] | 5 to 50 nM
Cc1cc(N[C@@H]2CCCN(CC(=O)N3CCC4(CCNCC4)CC3)C2)nnc1-c1ccc(C(F)(F)F)cc1O [Example 93, (R)-2-(3-((6-(2-Hydroxy-4-(trifluoromethyl)phenyl)-5-methylpyridazin-3-yl)amino)piperidin-1-yl)-1-(3,9-diazaspiro[5.5]undecan-3-yl)ethan-1-one] | 50 to 500 nM
Cc1cc(N[C@@H]2CCCN(CCN3CCNCC3)C2)nnc1-c1ccc(C(F)(F)F)cc1O [Example 104, (R)-2-(4-Methyl-6-((1-(2-(piperazin-1-yl)ethyl)piperidin-3-yl)amino)pyridazin-3-yl)-5-(trifluoromethyl)phenol] | 5 to 50 nM
Oc1cc(C(F)(F)F)ccc1-c1nnc(N[C@@H]2CCCN(C3CNC3)C2)c2c1COC2 [Example 99, (R)-2-(4-((1-(Azetidin-3-yl)piperidin-3-yl)amino)-5,7-dihydrofuro[3,4-d]pyridazin-1-yl)-5-(trifluoromethyl)phenol] | < 5 nM
Cc1cc(N[C@@H]2CCCN(CC(=O)N3CCN[C@H](C)C3)C2)nnc1-c1ccc(C(F)(F)F)cc1O [Example 110, 2-((R)-3-((6-(2-Hydroxy-4-(trifluoromethyl)phenyl)-5-methylpyridazin-3-yl)amino)piperidin-1-yl)-1-((R)-3-methylpiperazin-1-yl)ethan-1-one] | 5 to 50 nM
Cc1cc(N[C@@H]2CCCN(CC(=O)NC3CNC3)C2)nnc1-c1ccc(C(F)(F)F)cc1O [Example 94, (R)—N-(Azetidin-3-yl)-2-(3-((6-(2-hydroxy-4-(trifluoromethyl)phenyl)-5-methylpyridazin-3-yl)amino)piperidin-1-yl)acetamide] | > 500 nM
Cc1cc(N[C@@H]2CCCN(CC(=O)N3CCN[C@@H](C)C3)C2)nnc1-c1ccc(C(F)(F)F)cc1O [Example 111, 2-((R)-3-((6-(2-Hydroxy-4-(trifluoromethyl)phenyl)-5-methylpyridazin-3-yl)amino)piperidin-1-yl)-1-((S)-3-methylpiperazin-1-yl)ethan-1-one] | 5 to 50 nM
Cc1cc(N[C@@H]2CCCN(C3CCNCC3)C2)nnc1-c1ccc(C(F)(F)F)cc1O [Example 85, (R)-2-(6-([1,4′-Bipiperidin]-3-ylamino)-4-methylpyridazin-3-yl)-5-(trifluoromethyl)phenol] | 5 to 50 nM

same assay, conditions: read-out: IL-1β IC50; Table 3; PMA-differentiated U937 cells, 1 μg/mL LPS 3 h, compound 30 min, 10 mM nigericin 1 h

Compound | IC50
Cc1cc(N[C@@H]2CCCN(C3CCN(C4CCC(O)CC4)CC3)C2)nnc1-c1ccc(C(F)(F)F)cc1O (single isomer, unassigned) [Example 39B] | 5 to 50 nM
Cc1cc(N[C@@H]2CCCN(CC(=O)N(C)[C@H]3CC[C@H](O)CC3)C2)nnc1-c1ccc(C(F)(F)F)cc1O [Compound 18, 2-((R)-3-((6-(2-Hydroxy-4-(trifluoromethyl)phenyl)-5-methylpyridazin-3-yl)amino)piperidin-1-yl)-N-((1r,4R)-4-hydroxycyclohexyl)-N-methylacetamide] | 5 to 50 nM
Cc1cc(N[C@@H]2CCCN(C(=O)C3CCCC(O)C3)C2)nnc1-c1ccc(C(F)(F)F)cc1O (single isomer, unassigned) [Example 70 Fraction B] | < 5 nM
